Several values for one entry are separate records, joined by “and”; a condition that tells them apart may be missing. Identical values can stand only once. Like-named read-outs stand apart in the source and are kept apart here.
Tests used:
[1] = system: MV4-11 human acute myeloid leukemia cells; assay type: in vivo; conditions: for Hazard ratio: 40 mg/kg PO bid vs vehicle; for % Reduction from Vehicle Control, Bone Marrow / % Reduction from Vehicle Control, Peripheral blood: 40 mg/kg PO, bid daily
Procedure: At the end of the acclimatization period for the animals (>3 weeks in this study), mice were pretreated with sterile filtered (using a […] syringe filter) Cyclophosphamide prepared in 0.9% sterile saline (Sigma, St Louis, Mo.) by intraperitoneal injection of 150 mg/kg/day for 2 days followed by a rest period of 72 hours prior to intravenous (i.v.) injection of leukemia cells via the lateral tail vein, as described below.
On day 0 of the study, mice were inoculated once by intravenous tail vein injection of 5 or 10 million human MV4-11 leukemia cells resuspended in 100 microliters of fresh media as outlined in Table 1.
After mice were inoculated with human MV4-11 cells (day 0), dosing began on day 17 of the study. Mice were dosed orally (PO) twice daily (bid) for the duration of the study with either Vehicle or 40 mg/kg VII at 5 mL/kg dose volume with a minimum separation of 8 hours between doses
This study was designed to assess the effects of various doses of VII on tumor engraftment, disease progression, severity, and overall survival in a murine intravenous MV4-11 leukemia model using NOD-SCID immunocompromised mice as a host with cyclophosphamide pretreatment to enhance tumor engraftment.
This study was conducted in an effort to confirm a previous efficacy data from study, but also to determine if 5 or 10 million cell inoculations would yield similar inconsistencies in tumor cell engraftment in the bone marrow and peripheral blood or alter the resultant mortality in these mice. Since a detectable level of engraftment in some animals was observed as early as 4 weeks post tumor cell injection in pilot studies and historical efficacy data had been determined with this regimen, animals were treated orally (PO) with vehicle or R945788 calcium salt at 40 mg/kg on a twice per day (bid) schedule, every day beginning approximately 2 weeks after tumor cell injection. Animals were continued on this regimen until euthanized or until the end of the study. In this experiment, all surviving mice were terminated when mice reached approximately 5 months of age (day 83 of the study) in order to limit the affects of the spontaneous thymoma development, which can be seen in NOD-SCID mice beginning at approximately 5-6 months of age.
On day 0 (Aug. 12, 2005), mice were i.v. injected with human MV4-11 cells in fresh medium at 5 or 10 million cells per mouse via the lateral tail vein. By day 3 post MV4-11 cell injection (on Aug. 15, 2005), one mouse was excluded due to early death from excessive body weight loss prior to randomization or treatment, potentially due to cyclophosphamide treatment. Remaining animals were randomized into treatment groups using body weights and dosing began on day 17 post cell injection (Aug. 29, 2005). Mean body weights of groups 1-4 were 20.66±0.43, 20.23±0.41, 20.18±0.54, and 20.88±0.59, respectively. Treatment groups are outlined in Table 1:
Overall disease severity was determined from a combination of body weight loss, clinical observations, necropsy findings, and quantitation of tumor cell engraftment in selected tissues. Mice were weighed 2-3 times weekly and percent weight change calculated. At the first indication of morbidity, hind limb paralysis with apparent wasting, severe cachexia or weight loss greater than 20%, involving lethargy, ruffled fur etc, as outlined in IACUC Protocol Rigel 6-2002 “Efficacy of Novel Chemotherapeutics in Human/Mouse Tumor Xenograft Models”, animals were removed from the study and euthanized. At sacrifice, animals were anesthetized with CO2 gas and blood was be collected by cardiocentesis. Blood from animal was transferred to K2EDTA coated Microtainer (lavendar top) tubes. Whole blood was placed indirectly on ice and processed for flow cytometric staining, as described in section below. To further assess disease severity, the location and description of palpable or suspected tumors on gross examination was carefully noted upon necropsy. […]

[2] = Pharmacokinetics / oral bioavailability in Sprague-Dawley rats; assay type: in vivo
Procedure: Prodrug Compound 4 was tested for oral bioavailability. For the study, the prodrug was dissolved in various vehicles (e.g. PEG 400 solution and CMC suspension) for intravenous and oral dosing in the rats. […] Following administration of the prodrug and/or drug, plasma samples were obtained and extracted. The plasma concentrations of the prodrug and/or drug were determined by high performance liquid chromatography/tandem mass spectrometry (LC/MS/MS) methods. Pharmacokinetic analyses were performed based on the plasma concentration data. The pharmacokinetic parameters of interest include Clearance (CL), Volume of distribution at steady-state (Vss), terminal half-life (t1/2), and oral bioavailability (% F).
Referring to FIG. 16, PK profiles are shown for IV and PO administration in Spraque-Dawley rats. For IV administration, Compound 4 was dissolved in PEG-400 and administered at a dose of 1 mg/kg.
FIG. 17 summarizes the PK parameters for the study described in FIG. 4.
FIG. 23 illustrates the absorption of prodrug Compound 4 from different vehicles.

[3] = Stability under acidic and neutral conditions; assay type: physicochemical; conditions: 37° C.
[4] = Solubility of drug and phosphate prodrug; assay type: physicochemical; conditions: water solubility; read-out: Solubility
Source text: In contrast, Compound 4 is highly polar at neutral pH. Measured solubility values are consistent with the predicted cLogD values at pH=7.5.

[5] = 5 million cells, 40 mg/kg, at sacrifice, listed as VII

COc1cc(Nc2ncc(F)c(Nc3ccc4c(n3)N(COP(=O)(O)O)C(=O)C(C)(C)O4)n2)cc(OC)c1OC [Compound 4, N4-(2,2-dimethyl-4-[(dihydrogenphosphonoxy)methyl]-3-oxo-5-pyrido[1,4]oxazin-6-yl)-5-fluoro-N2-(3,4,5-trimethoxyphenyl)-2,4-pyrimidinediamine]
Median DOD (day of death) ([1]; 5E6 MV4-11 cells i.v., 40 mg/kg PO bid from day 17): 79 days
Hazard ratio ([1]; 5E6 cells): 3.5
% ILS (percent increase in life-span) ([1]; 5E6 cells, 40 mg/kg PO bid, vs vehicle median DOD 54 days): 45%
animals necropsied showing visible or palpable tumors ([1]; 5 million cells, 40 mg/kg): 3 out of 11
animals terminated by study termination ([1]; 5 million cells, 40 mg/kg): 7 of 12
surviving mice at day 83 ([1]; 5 million cells, 40 mg/kg PO bid, group of 12): 5
% Reduction from Vehicle Control, Bone Marrow ([1]; 5 million cells): 96%
% Reduction from Vehicle Control, Peripheral blood ([1]; 5 million cells): 99%
Bone Marrow: Mean % Tumor Cells (CD33+HLA+) [1, 5]: 1% and 1.03%
Peripheral Blood: Mean % Tumor Cells (CD33+HLA+) [1, 5]: 0.6% and 0.59%
Hazard ratio ([1]; 10E6 cells): 7.6
animals necropsied showing visible or palpable tumors ([1]; 10 million cells, 40 mg/kg): 7 out of 13
animals terminated by study termination ([1]; 10 million cells, 40 mg/kg): 4 out of 13
surviving mice at day 83 ([1]; 10 million cells, 40 mg/kg PO bid, group of 13): 9
% Reduction from Vehicle Control, Bone Marrow ([1]; 10 million cells): 59%
% Reduction from Vehicle Control, Peripheral blood ([1]; 10 million cells, all samples): 80%
Peripheral Blood: Mean % Tumor Cells (CD33+HLA+) ([1]; 10 million cells, 40 mg/kg, all samples): 10.32%
Bone Marrow: Mean % Tumor Cells (CD33+HLA+) ([1]; 10 million cells, 40 mg/kg, at sacrifice, listed as VII): 5% and 5.21%
mice survived to Day 83 ([1]; 10 million cells, 40 mg/kg, vehicle 0%): Over 50%
tolerability in NOD-SCID mice ([1]; mouse, in vivo): well tolerated
prodrug in plasma after IV administration ([2]; 1 mg/kg IV in PEG-400): Rapid disappearance
absorption from different vehicles ([2]; PEG-400, CMC, powder in hard gelatin capsules): absorbed equally well
plasma levels of drug metabolite Compound III after oral prodrug ([2]; PO in PEG-400): high levels
prodrug present systemically after oral administration ([2]; PO in PEG-400): no prodrug Compound 4 was present systemically
AUC/dose of drug Compound III exposure ([2]; oral Compound III 2.5 mg/kg or Compound 4 4 mg/kg in PEG-400): nearly identical
stability under acidic and neutral conditions [3]: stable
solubility [4]: > 5000 µg/mL
